Columns and labels:
[1] = target: T1, hVR1 receptors (Homo sapiens, UniProt Q8NER1); assay: Human VR1 binding assay ([3H]RTX); settings: membranes of HEK293 cells transfected with human VR1; for h Binding % I (1 uM): inhibition of [3H]RTX binding; for Ki: [3H]RTX binding
T1 construct: expressed in transfected cells; host or cells: HEK293
Experimental: Compounds of the present invention were tested for their ability to inhibit the binding of [^3H] RTX to hVR1 receptors in a [^3H] RTX binding assay as previously described (Zhang, Sui-Po. Improved ligand binding assays for vanilloid receptors. PCT Int. Appl. (2002), WO 0233411 A1 20020425 AN 2002:315209, and Grant, Elfrida R., Dubin, Adrienne E., Zhang, Sui-Po, Zivin, Robert A., Zhong, Zhong Simultaneous intracellular calcium and sodium flux imaging in human vanilloid receptor 1 (VR1)-transfected human embryonic kidney cells: a method to resolve ionic dependence of VR1-mediated cell death. J. Pharmacol. Exp. Ther., 2002, 300(1), 9-17.)
HEK293 cells were transfected with human VR1 vanilloid receptors and washed with Hank's balanced Salt Solution, dissociated with cell dissociation buffer (Sigma), and then centrifuged at 1000×g for 5 min. Cell pellets were homogenized in cold 20 mM HEPES buffer, pH 7.4, containing 5.8 mM NaCl, 320 mM sucrose, 2 mM MgCl2, 0.75 CaCl2 and 5 mM KCl and centrifuged at 1000×g for 15 min. The resultant supernate was then centrifuged at 40000×g for 15 min. The pelleted membranes were stored in a freezer at −80° C.
Approximately 120 μg protein/ml from membranes were incubated with indicated concentrations of [^3H]RTX in 0.5 ml of the HEPES buffer (pH 7.4) containing 0.25 mg/mL fatty acid-free bovine serum albumin at 37° C. for 60 min. The reaction mixture was then cooled to 4° C., added 0.1 mg α1-acid glycoprotein to each sample and incubated at 4° C. for 15 min. The samples were centrifuged at 18500×g for 15 min. The tip of the microcentrifuge tube containing the pellet was cut off. Bound radioactivity was quantified by scintillation counting. Non-specific binding was tested in the presence of 200 nM unlabeled RTX.
Data were calculated according to the equation: % inhibition=(total binding−binding)*100/(total binding−non specific binding). Ki values were calculated using a Prism program.

[2] = target: T2, Human Vanilloid Receptor 1 (Homo sapiens, UniProt Q8NER1); assay: Human VR1 functional assay using FLIPR, Protocol 1; type: cell-based; settings: for inhibition at 9 µM: HEK293, 9 uM, HEK 293 cells transfected with hVR1, read-out: h % I (9 uM); for IC50: decreased capsaicin (EC80)-induced calcium response, HEK 293 hVR1, read-out: h IC50
T2 construct: expressed in transfected cells; host or cells: HEK 293
Experimental: The functional activity of the test compounds was determined by measuring changes in intracellular calcium concentration using FLIPR™ Calcium-3 Assay Kit and FLIPR™ technology.
HEK 293 cells transfected with Human Vanilloid Receptor 1 were maintained at 37° C. and 5% CO2 in: Dulbecco's Modification of Eagle's Medium (high glucose, L-glutamine, pyridoxine HCl, No sodium pyruvate), 10% FBS, 1× Penicillin-Streptomycin-Amphotericin B, 200 ug/mL zeocin. Approximately 24 hours prior to assay, 30,000 cells/well were plated onto a 384-well black clear bottom poly-D-lysine-coated assay plate with a well volume of 25 µL using Titertek Multidrop.
On the day of the assay, the medium was dumped and 50 μL 1× dye were loaded using Multidrop. Plates were incubated with dye at 37° C. for 30 minutes followed by 30 minutes incubation at room temperature. Then the plates were assayed by FLIPR™ with 2 additions: 12.5 μL test compound with 5 minutes data acquisition followed by 12.5 μL capsaicin at the EC80 concentration.
The EC50 values of test compounds were calculated based on a test compound-induced calcium response at the 5-minute time point. The IC50 values of compounds were calculated based on a decreased capsaicin-induced calcium response in the presence of test compound.

[3] = inhibition of capsaicin (EC80)-induced calcium response

T1 sequence (Q8NER1 whole entry): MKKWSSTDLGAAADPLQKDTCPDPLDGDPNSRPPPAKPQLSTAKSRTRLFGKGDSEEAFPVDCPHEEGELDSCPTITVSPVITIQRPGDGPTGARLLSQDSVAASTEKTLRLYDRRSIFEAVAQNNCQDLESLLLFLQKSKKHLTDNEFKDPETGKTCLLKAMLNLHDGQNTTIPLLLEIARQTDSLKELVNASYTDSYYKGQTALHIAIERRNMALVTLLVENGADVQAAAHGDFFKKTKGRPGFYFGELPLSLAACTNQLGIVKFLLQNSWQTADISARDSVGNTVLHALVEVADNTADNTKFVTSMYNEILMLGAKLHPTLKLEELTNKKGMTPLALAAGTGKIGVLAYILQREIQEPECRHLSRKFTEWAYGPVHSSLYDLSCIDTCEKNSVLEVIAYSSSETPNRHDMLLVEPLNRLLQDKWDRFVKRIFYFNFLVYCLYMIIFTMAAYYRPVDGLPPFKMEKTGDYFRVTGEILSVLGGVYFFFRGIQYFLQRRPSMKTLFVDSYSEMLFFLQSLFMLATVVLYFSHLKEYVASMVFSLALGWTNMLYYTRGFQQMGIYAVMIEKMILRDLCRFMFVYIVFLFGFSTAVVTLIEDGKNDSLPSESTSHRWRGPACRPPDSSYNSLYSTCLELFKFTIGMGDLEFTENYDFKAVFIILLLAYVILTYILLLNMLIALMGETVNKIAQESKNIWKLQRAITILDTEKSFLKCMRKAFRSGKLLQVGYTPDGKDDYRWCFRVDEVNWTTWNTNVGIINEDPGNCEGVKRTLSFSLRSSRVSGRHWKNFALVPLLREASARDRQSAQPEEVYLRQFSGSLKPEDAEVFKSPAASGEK
T2 sequence (Q8NER1 whole entry): as above

h Binding % I (1 uM) [1] [%]	Ki [1] [nM]	inhibition at 9 µM [2, 3] [%]	IC50 [2] [nM]	h % I (9 uM) ([2]; 9 uM, inhibition of capsaicin (EC80)-induced calcium response, HEK 293 cells transfected with hVR1) [%]	Structure (SMILES)
66.5	215	92.2	350	–	Cc1ccc(N2CCC(C(=O)Nc3cnc4ccccc4c3)CC2)cc1C [Example 6, 1-(3,4-Dimethyl-phenyl)-piperidine-4-carboxylic acid quinolin-3-ylamide]
4.8	–	48.5	5610	–	CC(=O)N1CCc2cccc(NC(=O)C3CCN(c4cccc(C(F)(F)F)c4)CC3)c21 [Example 9, 1-(3-Trifluoromethyl-phenyl)-piperidine-4-carboxylic acid (1-acetyl-2,3-dihydro-1H-indol-7-yl)-amide]
15.0	–	83	800	–	CC(=O)N1CCc2ccc(NC(=O)C3CCN(c4cccc(C(F)(F)F)c4)CC3)cc21 [Example 16, 1-(3-Trifluoromethyl-phenyl)-piperidine-4-carboxylic acid (1-acetyl-2,3-dihydro-1H-indol-6-yl)-amide]
86.9	134	–	160	102.0	O=C(Nc1cccc2[nH]ccc12)C1CCN(c2cccc(C(F)(F)F)c2)CC1 [Example 21, 1-(3-Trifluoromethyl-phenyl)-piperidine-4-carboxylic acid (1H-indol-4-yl)-amide]
–	225	84	490	–	Cc1cccc(N2CCC(C(=O)Nc3ccc4c(c3)NC(=O)CO4)CC2)c1 [Example 140, 1-m-Tolyl-piperidine-4-carboxylic acid (3-oxo-3,4-dihydro-2H-benzo[1,4]oxazin-6-yl)-amide]
–	61	100	150	–	Cc1ccccc1N1CCC(C(=O)Nc2ccc3c(c2)NC(=O)CO3)CC1 [Example 141, 1-o-Tolyl-piperidine-4-carboxylic acid (3-oxo-3,4-dihydro-2H-benzo[1,4]oxazin-6-yl)-amide]
–	78	101	180	–	CC(C)c1ccccc1N1CCC(C(=O)Nc2ccc3c(c2)NC(=O)CO3)CC1 [Example 143, 1-(2-Isopropyl-phenyl)-piperidine-4-carboxylic acid (3-oxo-3,4-dihydro-2H-benzo[1,4]oxazin-6-yl)-amide]
–	34	88.7	190	–	O=C1COc2ccc(NC(=O)C3CCN(c4cccc(Cl)c4)CC3)cc2N1 [Example 148, 1-(3-Chloro-phenyl)-piperidine-4-carboxylic acid (3-oxo-3,4-dihydro-2H-benzo[1,4]oxazin-6-yl)-amide]

The next lines start with the compound.

Structure (SMILES)	h Binding % I (1 uM) [1] [%]	Ki [1] [nM]	inhibition at 9 µM [2, 3] [%]	IC50 [2] [nM]	h % I (9 uM) ([2]; 9 uM, inhibition of capsaicin (EC80)-induced calcium response, HEK 293 cells transfected with hVR1) [%]
O=C(Nc1cccc2[nH]ccc12)C1CCN(c2cccc(C(F)(F)F)c2)CC1 [Example 8, 1-(3-Trifluoromethyl-phenyl)-piperidine-4-carboxylic acid (1H-indol-4-yl)-amide]	87.0	134	101	230	–
O=C(Nc1ccc2ncsc2c1)C1CCN(c2cccc(C(F)(F)F)c2)CC1 [Example 13, 1-(3-Trifluoromethyl-phenyl)-piperidine-4-carboxylic acid benzothiazol-6-ylamide]	47.7	–	88	480	–
CC(=O)c1cc2c(cc1NC(=O)C1CCN(c3cccc(C(F)(F)F)c3)CC1)OCO2 [Example 33, 1-(3-Trifluoromethyl-phenyl)-piperidine-4-carboxylic acid (6-acetyl-benzo[1,3]dioxol-5-yl)-amide]	12.8	–	12.6	–	–
O=C1COc2ccc(NC(=O)C3CCN(c4cccc(C(F)(F)F)c4)CC3)cc2N1 [Example 34, 1-(3-Trifluoromethyl-phenyl)-piperidine-4-carboxylic acid (3-oxo-3,4-dihydro-2H-benzo[1,4]oxazin-6-yl)-amide]	–	65	94.5	210	–
O=C(Nc1cnc2ccccc2c1)C1CCN(c2ccccc2Br)CC1 [Example 53, 1-(2-Bromo-phenyl)-piperidine-4-carboxylic acid quinolin-3-ylamide]	47.3	–	104	160	–
CCc1ccccc1N1CCC(C(=O)Nc2ccc3c(c2)NC(=O)CO3)CC1 [Example 142, 1-(2-Ethyl-phenyl)-piperidine-4-carboxylic acid (3-oxo-3,4-dihydro-2H-benzo[1,4]oxazin-6-yl)-amide]	–	125	96.3	150	–
Cc1ccc(N2CCC(C(=O)Nc3ccc4c(c3)NC(=O)CO4)CC2)cc1C [Example 144, 1-(3,4-Dimethyl-phenyl)-piperidine-4-carboxylic acid (3-oxo-3,4-dihydro-2H-benzo[1,4]oxazin-6-yl)-amide]	–	314	77	380	–
Cc1cccc(N2CCC(C(=O)Nc3ccc4c(c3)NC(=O)CO4)CC2)c1C [Example 145, 1-(2,3-Dimethyl-phenyl)-piperidine-4-carboxylic acid (3-oxo-3,4-dihydro-2H-benzo[1,4]oxazin-6-yl)-amide]	–	27	99.5	60	–
CC(C)(C)c1ccc(N2CCC(C(=O)Nc3ccc4c(c3)NC(=O)CO4)CC2)cc1 [Example 146, 1-(4-tert-Butyl-phenyl)-piperidine-4-carboxylic acid (3-oxo-3,4-dihydro-2H-benzo[1,4]oxazin-6-yl)-amide]	–	132	112	90	–
O=C1COc2ccc(NC(=O)C3CCN(c4cccc(F)c4)CC3)cc2N1 [Example 147, 1-(3-Fluoro-phenyl)-piperidine-4-carboxylic acid (3-oxo-3,4-dihydro-2H-benzo[1,4]oxazin-6-yl)-amide]	–	84	90	520	–
O=C1COc2ccc(NC(=O)C3CCN(c4ccccc4F)CC3)cc2N1 [Example 151, 1-(2-Fluoro-phenyl)-piperidine-4-carboxylic acid (3-oxo-3,4-dihydro-2H-benzo[1,4]oxazin-6-yl)-amide]	–	1470	62.3	670	–
O=C1COc2ccc(NC(=O)C3CCN(c4ccccc4Cl)CC3)cc2N1 [Example 152, 1-(2-Chloro-phenyl)-piperidine-4-carboxylic acid (3-oxo-3,4-dihydro-2H-benzo[1,4]oxazin-6-yl)-amide]	–	93	90.7	220	–
O=C1COc2ccc(NC(=O)C3CCN(c4ccccc4Br)CC3)cc2N1 [Example 153, 1-(2-Bromo-phenyl)-piperidine-4-carboxylic acid (3-oxo-3,4-dihydro-2H-benzo[1,4]oxazin-6-yl)-amide]	–	71	91.7	160	–
O=C1COc2ccc(NC(=O)C3CCN(c4cc(F)cc(F)c4)CC3)cc2N1 [Example 154, 1-(3,5-Difluoro-phenyl)-piperidine-4-carboxylic acid (3-oxo-3,4-dihydro-2H-benzo[1,4]oxazin-6-yl)-amide]	–	137	96	370	–
O=C1COc2ccc(NC(=O)C3CCN(c4ccc(F)c(F)c4)CC3)cc2N1 [Example 155, 1-(3,4-Difluoro-phenyl)-piperidine-4-carboxylic acid (3-oxo-3,4-dihydro-2H-benzo[1,4]oxazin-6-yl)-amide]	–	56	89	850	–
